The source of these data is patent publication US9237750B2, “Ornidazole and related compounds for use as herbicides” (RAMOT AT TEL-AVIV UNIVERSITY LTD., priority 2012, dated 2016).

The subject of assay [1] is photosynthetic electron transport in Anabaena. As to the kind of experiment: Photosynthetic electron transport from H2O via reaction centers II and I and Methyl viologen to O2. It is filed as cell-based, Anabaena PCC7120. The settings on record: water to Methyl viologen (1 mM) to oxygen; O2 electrode. As to the method: The rates were determined for cells grown in a growth medium at 30° C. under 180 μmol photons×m^−2×sec^−1. The rate of electron transport from H2O via reaction centers II and I and Methyl viologen to O2 was determined in the presence of 1 mM methyl viologen using an O2 electrode. The effects of Ornidazole on the dark and light reactions of the photosynthetic apparatus were examined. Ornidazole had no effect on the photosynthetic electron transport in Anabaena measured from water as electron donor through the two reaction centers to Methyl viologen and finally to oxygen as an electron acceptor (FIG. 5).

The test system of assay [2] is Lemna. The experiment in a line: PAM fluorescence parameters of aquatic plant. It is filed as in vivo. To be noted: 1 mM Ornidazole in growth medium; actinic light 210 μmol photons×m^−2×sec^−1. As to the method:
The fluorescence under dim (3 μmol photons×m^−2×sec^−1) and saturating (2000 μmol photons×m^−2×sec^−1, 0.8 sec) flash light (Fo and Fmax, respectively) of pre-darkened plants was determined in the presence or absence of 1 mM Ornidazole in the growth medium, using a PAM fluorimeter. Quantum yield and non-photochemical quenching (qN) were determined with saturating flashes under actinic light (210 μmol photons×m^−2×sec^−1).
The rate of net O2 exchange was determined using a Clark-type O2 electrode (Rank Brothers Ltd, UK). Fluorescent measurements (quantum yield, photochemical and non photochemical quenching) were determined using a modulated fluorometer (PAM, Walz, Germany) as described by Schreiber et al. (Schreiber U et al., 1986. fluorometer. Photosynth Res 10, 51-62) and Snir et al. (Snir A, et al., 2006. Photosynth Res 90, 233-242).
The effect of Ornidazole on photosynthesis was further examined in the aquatic plant Lemna. Lemna plants were collected from a pond at the Botanical garden of Tel Aviv University and kept in the pond water as a growth medium. The fluorescence under dim (3 μmol photons m^−2 sec^−1) and saturating (2000 μmol photons m^−2 sec^−1, 0.8 sec) flash light (Fo and Fmax, respectively) of pre-darkened plants was determined in the presence or absence of 1 mM Ornidazole in the growth medium, using a PAM fluorimeter (H. Walz, Germany). […]

The target in assay [3] is triose phosphate isomerase (Homo sapiens, UniProt P60174). To be noted: glycolytic triose phosphate isomerase; cited from earlier work.
In assay [4] the test system is GAPDH. As to the kind of experiment: Calvin cycle enzyme activity. It is filed as biochemical, Anabaena. The settings on record: 1 mM Ornidazole. As to the method: (§1) Rubisco was assayed as described by Marcus et al. (2005, ibid) and Snir et al. (2006, ibid). Phospho-ribulose kinase was assayed by conversion of phospho-ribulose to RuBP, which was determined by Rubisco dependent carboxylation with radiolabeled ^14CO2. Plant or cyanobacterial extract was incubated with medium containing 50 mM Hepes pH 8, 10 mM MgCl2, 20 mM NaH^14CO3, 1 mM DTT, 0.5 mM ribose-5-phosphate, ribose-5-phosphate isomerase and activated Rubisco. Phosphoglycerate kinase, GAPDH, FBPase and SBPase were determined as described by Leegood (Leegood R C., 1990. In: Methods in plant biochemistry, Vol 3, pp 15-37, Academic Press).
(§2) However, analysis of Ornidazole effect on various enzymes of the Calvin cycle in Anabaena including ribulose-bisphosphate carboxylase/oxygenase (Rubisco), phosphoglycerate kinase, glyceraldehyde-3-phosphate dehydrogenase (GAPDH), triose-phosphate isomerase, aldolase, fructose and sedoheptulose bisphosphatase and phosphoribulose kinase, has shown inhibition of GAPDH and triose-phosphate isomerase (Table 2).

The target in assay [5] is T1, Phosphglycerate kinase (Nostoc sp., UniProt Q8YPR1).
T1 construct: endogenous in cells; host or cells: Anabaena PCC7120 extract
T1 sequence (Q8YPR1 1-400): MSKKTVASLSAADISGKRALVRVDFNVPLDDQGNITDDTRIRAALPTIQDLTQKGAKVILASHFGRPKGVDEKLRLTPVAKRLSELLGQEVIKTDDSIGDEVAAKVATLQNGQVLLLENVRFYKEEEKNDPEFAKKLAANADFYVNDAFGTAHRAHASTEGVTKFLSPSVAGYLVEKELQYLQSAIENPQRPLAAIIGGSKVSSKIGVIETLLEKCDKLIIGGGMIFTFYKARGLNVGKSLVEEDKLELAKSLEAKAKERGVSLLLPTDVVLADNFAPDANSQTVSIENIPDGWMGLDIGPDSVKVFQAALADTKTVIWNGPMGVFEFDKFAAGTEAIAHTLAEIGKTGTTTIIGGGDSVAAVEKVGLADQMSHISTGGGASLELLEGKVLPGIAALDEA
As to the kind of experiment: Calvin cycle enzyme activity. It is filed as biochemical, Anabaena. To be noted: 1 mM Ornidazole. As to the method: as §1, §2

The test system of assay [6] is Sedoheptulose bisphosphatase. As to the kind of experiment: Calvin cycle enzyme activity. To be noted: 1 mM Ornidazole. It is filed as biochemical, Anabaena. As to the method:
as §1, §2

Assay [7] deals with Aldolase. As to the kind of experiment: Calvin cycle enzyme activity. It is filed as biochemical, Anabaena. To be noted: 1 mM Ornidazole. As to the method:
as §1, §2

Assay [8] deals with Phosphoribulose kinase. As to the kind of experiment: Calvin cycle enzyme activity. It is filed as biochemical, Anabaena. To be noted: 1 mM Ornidazole. As to the method: as §1, §2
In assay [9] the test system is Fructose bisphosphatase. As to the kind of experiment: Calvin cycle enzyme activity. It is filed as biochemical, Anabaena. The settings on record: 1 mM Ornidazole. As to the method:
as §1, §2

Assay [10] deals with T2, Rubisco (Nostoc sp., UniProt P00879).
T2 construct: endogenous in cells; host or cells: Anabaena PCC7120 extract
The experiment in a line: Calvin cycle enzyme activity. It is filed as biochemical, Anabaena. The settings on record: 1 mM Ornidazole. As to the method:
as §1, §2

For assay [11], the system named is Avena sterilis. The experiment in a line: Photosynthetic quantum yield of immersed leaf blades (PAM fluorimeter). It is filed as in vivo. The settings on record: 1 mM Ornidazole in water, 3.5 hours. As to the method: Leaves of Avena seedlings grown in a pot (still attached to the stem) were immersed in 1 mM Ornidazole for the indicated times. The photosynthetic quantum yield under various light intensities was determined with a PAM fluorimeter. The rate of net O2 exchange was determined using a Clark-type O2 electrode (Rank Brothers Ltd, UK). Fluorescent measurements (quantum yield, photochemical and non photochemical quenching) were determined using a modulated fluorometer (PAM, Walz, Germany) as described by Schreiber et al. (Schreiber U et al., 1986. fluorometer. Photosynth Res 10, 51-62) and Snir et al. (Snir A, et al., 2006. Photosynth Res 90, 233-242). Similar results were obtained by immersion of leaf blades of the weed Avena sterilis in 1 mM Ornidazole in water. After 3.5 hours of incubation the quantum yield of photosynthesis decreased by 50% under limiting light intensity and by 85% under saturating light intensity (FIG. 4).

triose phosphate isomerase, sequence (P60174 whole entry, species assumed): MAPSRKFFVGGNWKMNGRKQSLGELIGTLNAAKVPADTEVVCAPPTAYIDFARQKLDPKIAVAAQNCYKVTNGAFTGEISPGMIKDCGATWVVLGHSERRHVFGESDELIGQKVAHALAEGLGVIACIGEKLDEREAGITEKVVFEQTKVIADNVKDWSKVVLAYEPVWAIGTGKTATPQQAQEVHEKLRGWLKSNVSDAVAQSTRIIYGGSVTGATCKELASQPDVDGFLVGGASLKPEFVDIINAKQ

Turning to `Cc1ncc([N+](=O)[O-])n1CC(O)CCl` (centres unmarked) [Ornidazole, 1-chloro-3-(2-methyl-5-nitro-1H-imidazol-1-yl)propan-2-ol], the “effect on photosynthetic electron transport” value in assay [1] is “no effect”. For the same molecule, the non-photochemical quenching entry in assay [2] is listed as “increased”. In assay [2], the photosynthetic quantum yield entry was “decreased significantly”. The “inhibition of enzyme activity” value was “inhibits the activity” in assay [3] and 98%-100 in assay [4]. The Activity is 1.77 μmol × mg^−1chl × h^−1 in assay [4]; 57 μmol × mg^−1chl × h^−1 in assay [5]; 62 μmol × mg^−1chl × h^−1 in assay [6]; 120 μmol × mg^−1chl × h^−1 in [7]; 66.7 μmol × mg^−1chl × h^−1 in [8]; 71 μmol × mg^−1chl × h^−1 in [9]. The Activity in [10] was determined as 74.6 μmol × mg^−1chl × h^−1. Moreover, the “decrease of quantum yield of photosynthesis” value in assay [11] (limiting light intensity) is given as 50%; in [11] (saturating light intensity), 85%.
